Results reported in patent US9695155B2, “Herbicidal substituted pyrimidinyloxy benzene compounds” (E. I. DU PONT DE NEMOURS AND COMPANY, priority 2013, dated 2017).

Assays:
giant foxtail = assay: Test A preemergence; assay type: in vivo, Setaria faberii
How it was run: (§1)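 Visual 0–100 rating (100 = complete control) taken about 10 d post-treatment relative to untreated checks. Preemergence: directed soil spray on sown loam/sand pots. Postemergence: seedlings 2–10 cm, 1–2 leaf. Non-phytotoxic solvent formulation with surfactant.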

corn = assay: Test A preemergence; assay type: in vivo, Zea mays
How it was run: as §1

rice = assay: Test B flooded paddy test; assay type: in vivo, Oryza sativa; conditions: Flood, 250 g ai/ha, 0 to 100 scale where 0 is no effect and 100 is complete control
How it was run: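 Evaluation is visual, against untreated controls, 13 to 15 days after treatment. Before treatment, plants reached the 2-leaf stage; pots were then flooded 3 cm deep, compound was added to the water, and that level was maintained. Ratings run 0 to 100, with 100 meaning complete control.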

yellow nutsedge = assay: Test C preemergence; assay type: in vivo, Cyperus esculentus
How it was run: (§2)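 Plants were kept under greenhouse conditions for 13–15 days following spray. Pre-emergent application went to soil (loam–sand), post-emergent to foliage at 1–4 leaves. Evaluation: visual, percent control against untreated checks.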

pigweed = assay: Test C preemergence; assay type: in vivo, Amaranthus retroflexus
How it was run: as §2

soybean = assay: Test C preemergence; assay type: in vivo, Glycine max
How it was run: as §2

velvetleaf = assay: Test C preemergence; assay type: in vivo, Abutilon theophrasti
How it was run: as §2

[1] = 125 g ai/ha, 0 to 100 scale where 0 is no effect and 100 is complete control
[2] = 500 g ai/ha, 0 to 100 scale, 0 no effect, 100 complete control, approx. 10 days
[3] = 16 g ai/ha, preemergence, scale 0 to 100 (0 no effect, 100 complete control)
[4] = 62 g ai/ha, preemergence, scale 0 (no effect) to 100 (complete control)
[5] = 125 g ai/ha, preemergence, scale 0 (no effect) to 100 (complete control)
[6] = Preemergence, 31 g ai/ha, scale 0 to 100, 0 no effect, 100 complete control
[7] = 500 g ai/ha, 0 to 100 scale where 0 is no effect and 100 is complete control
[8] = Preemergence, 62 g ai/ha, scale 0 to 100, 0 no effect, 100 complete control

Compound: FC(F)(F)c1cnn(-c2ccccc2Oc2ncc(Br)cn2)c1 [Compound 18, 5-bromo-2-[2-[4-(trifluoromethyl)-1H-pyrazol-1-yl]phenoxy]pyrimidine]
- pest or weed control at 125 g/ha (giant foxtail; Setaria faberi, pre-emergence, 240 h, 125 g ai/ha, 0 to 100 scale where 0 is no effect and 100 is complete control, read-out: Plant response rating, Foxtail, Giant): 100%
- pest or weed control at 500 g/ha (giant foxtail; Setaria faberi, pre-emergence, 240 h, 500 g ai/ha, 0 to 100 scale, 0 no effect, 100 complete control, approx. 10 days, read-out: Foxtail, Giant plant response rating): 100%
- Corn plant response rating (crop injury, 0 = no effect, 100 = complete kill) at 125 g/ha (corn; Zea mays, pre-emergence, 240 h, 125 g ai/ha, 0 to 100 scale where 0 is no effect and 100 is complete control): 0%
- plant injury at 500 g/ha (corn; Zea mays, pre-emergence, 240 h, 500 g ai/ha, 0 to 100 scale, 0 no effect, 100 complete control, approx. 10 days, read-out: Corn plant response rating): 10%
- plant injury at 250 g/ha (rice; Oryza sativa, read-out: Plant response rating, Rice): 0%
- pest or weed control at 62 g/ha (yellow nutsedge; Cyperus, pre-emergence, 62 g ai/ha, preemergence, scale 0 (no effect) to 100 (complete control), read-out: Nutsedge, Yellow plant response rating): 15%
- pest or weed control at 125 g/ha (yellow nutsedge; Cyperus, pre-emergence, 125 g ai/ha, preemergence, scale 0 (no effect) to 100 (complete control), read-out: Nutsedge, Yellow plant response rating): 25%
- pest or weed control at 250 g/ha (yellow nutsedge; Cyperus, pre-emergence, 250 g ai/ha, preemergence, scale 0 (no effect) to 100 (complete control), read-out: Nutsedge, Yellow plant response rating): 35%
- pest or weed control at 31 g/ha (yellow nutsedge; Cyperus, pre-emergence, Preemergence, 31 g ai/ha, scale 0 to 100, 0 no effect, 100 complete control, read-out: Plant response rating, Nutsedge, Yellow): 10%
- pest or weed control at 62 g/ha (pigweed; Amaranthus retroflexus, pre-emergence, 62 g ai/ha, preemergence, scale 0 (no effect) to 100 (complete control), read-out: Pigweed plant response rating): 100%
- pest or weed control at 125 g/ha (pigweed; Amaranthus retroflexus, pre-emergence, 125 g ai/ha, preemergence, scale 0 (no effect) to 100 (complete control), read-out: Pigweed plant response rating): 100%
- pest or weed control at 250 g/ha (pigweed; Amaranthus retroflexus, pre-emergence, 250 g ai/ha, preemergence, scale 0 (no effect) to 100 (complete control), read-out: Pigweed plant response rating): 100%
- pest or weed control at 31 g/ha (pigweed; Amaranthus retroflexus, pre-emergence, Preemergence, 31 g ai/ha, scale 0 to 100, 0 no effect, 100 complete control, read-out: Plant response rating, Pigweed): 100%
- plant injury at 62 g/ha (soybean; Glycine max, pre-emergence, 62 g ai/ha, preemergence, scale 0 (no effect) to 100 (complete control), read-out: Soybean plant response rating): 65%
- plant injury at 125 g/ha (soybean; Glycine max, pre-emergence, 125 g ai/ha, preemergence, scale 0 (no effect) to 100 (complete control), read-out: Soybean plant response rating): 85%
- plant injury at 250 g/ha (soybean; Glycine max, pre-emergence, 250 g ai/ha, preemergence, scale 0 (no effect) to 100 (complete control), read-out: Soybean plant response rating): 85%
- plant injury at 31 g/ha (soybean; Glycine max, pre-emergence, Preemergence, 31 g ai/ha, scale 0 to 100, 0 no effect, 100 complete control, read-out: Plant response rating, Soybean): 25%
- pest or weed control at 62 g/ha (velvetleaf; Abutilon theophrasti, pre-emergence, 62 g ai/ha, preemergence, scale 0 (no effect) to 100 (complete control), read-out: Velvetleaf plant response rating): 100%
- pest or weed control at 125 g/ha (velvetleaf; Abutilon theophrasti, pre-emergence, 125 g ai/ha, preemergence, scale 0 (no effect) to 100 (complete control), read-out: Velvetleaf plant response rating): 100%
- pest or weed control at 250 g/ha (velvetleaf; Abutilon theophrasti, pre-emergence, 250 g ai/ha, preemergence, scale 0 (no effect) to 100 (complete control), read-out: Velvetleaf plant response rating): 100%
- pest or weed control at 31 g/ha (velvetleaf; Abutilon theophrasti, pre-emergence, Preemergence, 31 g ai/ha, scale 0 to 100, 0 no effect, 100 complete control, read-out: Plant response rating, Velvetleaf): 60%

Compound: Fc1cnc(Oc2cccc(C(F)F)c2-n2cc(Br)cn2)nc1 [Compound 112]
- Plant response rating, Foxtail, Giant (giant foxtail; [1]): 100
- Foxtail, Giant plant response rating (giant foxtail; [2]): 100
- Plant response rating, Corn (corn; [1]): 0
- Corn plant response rating (corn; [2]): 50
- Plant response rating, Rice (rice): 0
- Nutsedge, Yellow plant response rating (yellow nutsedge; [3]): 0
- Nutsedge, Yellow plant response rating (yellow nutsedge; [4]): 15
- Nutsedge, Yellow plant response rating (yellow nutsedge; [5]): 40
- Plant response rating, Nutsedge, Yellow (yellow nutsedge; [6]): 5
- Pigweed plant response rating (pigweed; [3]): 100
- Pigweed plant response rating (pigweed; [4]): 100
- Pigweed plant response rating (pigweed; [5]): 100
- Plant response rating, Pigweed (pigweed; [6]): 100
- Soybean plant response rating (soybean; [3]): 10
- Soybean plant response rating (soybean; [4]): 50
- Soybean plant response rating (soybean; [5]): 95
- Plant response rating, Soybean (soybean; [6]): 35
- Velvetleaf plant response rating (velvetleaf; [3]): 65
- Velvetleaf plant response rating (velvetleaf; [4]): 100
- Velvetleaf plant response rating (velvetleaf; [5]): 100
- Plant response rating, Velvetleaf (velvetleaf; [6]): 70

Compound: Fc1cccc(Oc2ncc(Cl)cn2)c1-n1cc(I)cn1 [Compound 179]
- Plant response rating, Foxtail, Giant (giant foxtail; [1]): 100
- Foxtail, Giant plant response rating (giant foxtail; [7]): 100
- Plant response rating, Corn (corn; [1]): 0
- Corn plant response rating (corn; [7]): 10
- Plant response rating, Rice (rice): 0
- Nutsedge, Yellow plant response rating (yellow nutsedge; [3]): 0
- Nutsedge, Yellow plant response rating (yellow nutsedge; [4]): 10
- Nutsedge, Yellow plant response rating (yellow nutsedge; [5]): 15
- Pigweed plant response rating (pigweed; [3]): 100
- Pigweed plant response rating (pigweed; [4]): 100
- Pigweed plant response rating (pigweed; [5]): 100
- Soybean plant response rating (soybean; [3]): 0
- Soybean plant response rating (soybean; [4]): 45
- Soybean plant response rating (soybean; [5]): 65
- Velvetleaf plant response rating (velvetleaf; [3]): 60
- Velvetleaf plant response rating (velvetleaf; [4]): 98
- Velvetleaf plant response rating (velvetleaf; [5]): 100

Compound: CCOc1cnn(-c2ccccc2Oc2ncc(Cl)cn2)c1 [Compound 187]
- Foxtail, Giant plant response rating (0 to 100 scale) (giant foxtail; 125 g ai/ha): 100
- Foxtail, Giant plant response rating (giant foxtail; [7]): 100
- Corn plant response rating (0 to 100 scale) (corn; 125 g ai/ha): 0
- Corn plant response rating (corn; [7]): 40
- Plant response rating, Rice (rice): 0
- Nutsedge, Yellow plant response rating (yellow nutsedge; [3]): 0
- Nutsedge, Yellow plant response rating (yellow nutsedge; [5]): 5
- Plant response rating, Nutsedge, Yellow (yellow nutsedge; [8]): 5
- Pigweed plant response rating (pigweed; [3]): 45
- Pigweed plant response rating (pigweed; [5]): 100
- Plant response rating, Pigweed (pigweed; [8]): 90
- Soybean plant response rating (soybean; [3]): 5
- Soybean plant response rating (soybean; [5]): 85
- Plant response rating, Soybean (soybean; [8]): 55
- Velvetleaf plant response rating (velvetleaf; [3]): 25
- Velvetleaf plant response rating (velvetleaf; [5]): 100
- Plant response rating, Velvetleaf (velvetleaf; [8]): 95

Compound: Fc1cccc(Oc2ncc(Cl)cn2)c1-n1cc(OCC(F)(F)F)cn1 [Compound 270]
- Plant response rating, Foxtail, Giant (giant foxtail; 31 g ai/ha, 0 to 100 scale where 0 is no effect and 100 is complete control, visual, approximately 10 days): 40
- Foxtail, Giant plant response rating (0 to 100 scale) (giant foxtail; 125 g ai/ha): 100
- Plant response rating, Rice (rice): 0
- Nutsedge, Yellow plant response rating (yellow nutsedge; [3]): 0
- Nutsedge, Yellow plant response rating (yellow nutsedge; [5]): 45
- Plant response rating, Nutsedge, Yellow (yellow nutsedge; [8]): 15
- Pigweed plant response rating (pigweed; [3]): 100
- Pigweed plant response rating (pigweed; [5]): 100
- Plant response rating, Pigweed (pigweed; [8]): 100
- Soybean plant response rating (soybean; [3]): 0
- Soybean plant response rating (soybean; [5]): 85
- Plant response rating, Soybean (soybean; [8]): 25
- Velvetleaf plant response rating (velvetleaf; [3]): 0
- Velvetleaf plant response rating (velvetleaf; [5]): 100
- Plant response rating, Velvetleaf (velvetleaf; [8]): 98
